Assay results reported in patent publication US11306082B2, “Esters of dihydrotetrabenazine” (Foresee Pharmaceuticals Co., Ltd., priority 2017, dated 2022).
≈ marks a conversion by molar mass, not a printed value.

Tests used:
VMAT2 [1] = biological target: VMAT2 (Rattus norvegicus, UniProt Q01827); conditions: as disclosed in U.S. Pat. No. 8,039,627; read-out: VMAT2 binding affinity, Ki; cited from earlier work
[2] = human liver assay, response in application Ser. No. 11/937,445; cited from earlier work
[3] = Aqueous solubility of compounds; type: physicochemical; conditions: for aqueous solubility compared with compound IV: all tested conditions; for solubility: aqueous buffer, thermodynamic from solid, 37° C.
Description: Compound suspensions (2 mg/m L) in various aqueous solutions, including 10 mM pH 4.0 citrate-saline buffer, 10 mM pH 5.0 citrate-saline buffer, 10 mM pH 5.8 PBS, 10 mM pH 7.4 PBS, 10 mM pH 8.5 borate-saline buffer, pure water and serum, were stirred at 37° C. for 2-3 days. Daily, 0.5 to 1 mL aliquots were taken and centrifuged at 14,000 rpm for 2 min without temperature control. The supernatant was analyzed by HPLC to determine the amount of dissolved compounds.

[4] = Solubility in pharmaceutical acceptable organic solvents; type: physicochemical; conditions: for solubility: organic solvent or mixture, thermodynamic from solid, 37° C.
Description: Previously, non-aqueous solvents, such as organic solvents, have long been utilized in injectable pharmaceutical products to dissolve water-insoluble drugs. Here, the solubility of compounds of the present application in various organic solvents were tested. The compound suspensions in various pharmaceutical acceptable organic solvents, including dimethylacetamide (DMAc), Dimethyl sulfoxide (DMSO), triacetin (TA), were stirred at 37° C. at designed time interval. At the designed time point, 0.5 mL aliquots were taken and centrifuged at 14,000 rpm for 2 min without temperature control. The supernatant was diluted with ACN and then analyzed by HPLC to determine the amount of dissolved compounds.

[5] = Solubility in pharmaceutical acceptable oils; type: physicochemical; conditions: for solubility in pharmaceutical acceptable oils (in words): castor, peanut, soybean oil; for solubility: oil or lipid, thermodynamic from solid, 37° C.
Description: Conventionally, fatty acids are used to conjugate with a drug to enhance drug's lipophilicity to increase its solubility in oils. The solubility of compounds of the present application in various oils were tested. The suspension of compounds in various pharmaceutical acceptable oils, including castor oil, sesame oil, cottonseed oil, peanut oil and soybean oil, were stirred at 37° C. for 2-3 days. At designed time point, about 200 to 300 μL aliquots were taken and centrifuged at 14,000 rpm for 2 min without temperature control. The supernatant was carefully withdrawn and extracted with 9 folds of ACN. The mixture was then vortexed for 30 sec and subsequently centrifuged at 14,000 rpm for 2 min without temperature control. The supernatant (300 uL) was taken and diluted with 1 fold of isopropanol (IPA) and then analyzed by HPLC to determine the amount of dissolved compounds. The oil without compound after same extraction/dilution step was used as control. […] The higher oil solubility can be advantageously used to make long acting or sustained release formulation to deliver the active compounds.

[6] = Color stability in organic solvents at 37° C.; type: physicochemical; conditions: incubation at 37° C. for 7 days, organic solvents (FIG. 1)
[7] = biological target: Vesicular Monoamine Transporter Isoform 2 (VMAT2) (UniProt Q01827); experiment: VMAT2 competition binding assay ([3H]dihydrotetrabenazine, whole brain membranes); conditions: for IC50: read-out: VMAT2 binding affinity IC50, [3H]Dihydrotetrabenazine 10 nM, 30 min at 25° C.; for Ki: read-out: VMAT2 binding affinity Ki, Cheng-Prusoff from IC50
Description: IC50 values were determined by a non-linear, least squares regression analysis using MathIQ™ (ID Business Solutions Ltd., UK).

[8] = system: porcine liver esterase (PLE); experiment: Enzymatic ester hydrolysis via porcine liver esterase; type: in vitro ADME
VMAT2 [9] = conditions: see 17 of the Declaration; cited from earlier work
VMAT2 [10] = biological target: VMAT2 (Bos taurus, UniProt Q27963); conditions: Scherman et al., 1983; cited from earlier work
[11] = borate-saline buffer, Borate (10 mM, pH 8.5)
[12] = citrate-saline buffer, Citrate buffer (10 mM, pH 5.0)

VMAT2 (Rattus norvegicus, UniProt Q01827), sequence (Q01827 whole entry): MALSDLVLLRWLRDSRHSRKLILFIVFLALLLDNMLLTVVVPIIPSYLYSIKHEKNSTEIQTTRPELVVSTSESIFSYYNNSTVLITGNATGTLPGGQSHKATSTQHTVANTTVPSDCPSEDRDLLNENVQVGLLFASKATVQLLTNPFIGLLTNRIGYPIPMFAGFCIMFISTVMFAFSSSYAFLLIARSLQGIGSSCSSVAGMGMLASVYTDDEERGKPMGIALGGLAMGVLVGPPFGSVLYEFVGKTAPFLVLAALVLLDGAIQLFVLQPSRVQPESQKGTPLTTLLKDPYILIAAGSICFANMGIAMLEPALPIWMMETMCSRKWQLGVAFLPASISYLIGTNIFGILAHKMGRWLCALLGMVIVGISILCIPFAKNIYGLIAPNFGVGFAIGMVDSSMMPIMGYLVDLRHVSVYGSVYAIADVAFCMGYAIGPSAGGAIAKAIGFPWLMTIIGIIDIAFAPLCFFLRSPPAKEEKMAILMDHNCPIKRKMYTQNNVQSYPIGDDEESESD
VMAT2 (Bos taurus, UniProt Q27963), sequence (Q27963 whole entry): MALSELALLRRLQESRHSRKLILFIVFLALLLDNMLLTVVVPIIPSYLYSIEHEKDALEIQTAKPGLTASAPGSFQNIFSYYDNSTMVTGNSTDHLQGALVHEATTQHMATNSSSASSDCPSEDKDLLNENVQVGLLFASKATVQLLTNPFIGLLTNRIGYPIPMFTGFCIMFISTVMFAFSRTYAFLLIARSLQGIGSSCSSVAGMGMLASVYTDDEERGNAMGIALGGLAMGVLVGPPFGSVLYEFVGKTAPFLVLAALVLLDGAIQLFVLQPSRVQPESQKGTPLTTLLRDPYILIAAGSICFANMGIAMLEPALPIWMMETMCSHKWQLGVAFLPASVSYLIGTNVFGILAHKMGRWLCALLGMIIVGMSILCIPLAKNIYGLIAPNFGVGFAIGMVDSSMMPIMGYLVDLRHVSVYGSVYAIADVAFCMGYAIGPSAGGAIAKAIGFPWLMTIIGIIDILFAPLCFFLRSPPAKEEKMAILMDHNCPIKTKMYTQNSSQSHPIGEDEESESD

aqueous solubility compared with compound IV [3]	solubility ([3]; PBS (10 mM, pH 5.8))	solubility ([3]; PBS (10 mM, pH 7.4))	solubility [3, 11]	solubility [3, 12]	solubility ([4]; DMAc)	solubility ([4]; DMSO)	solubility in pharmaceutical acceptable oils (in words) [5]	solubility ([5]; Castor oil)	solubility ([5]; Peanut oil)	solubility ([5]; Soybean oil)	color change in organic solvents [6]	IC50 [7]	Ki [7]	solubility ([4]; Triacetin)	Structure (SMILES)	conversion to (+)-α-DHTBZ [2]	also measured
															COc1cc2c(cc1OC)[C@H]1C[C@@H](OC(=O)[C@@H](N)C(C)C)[C@H](CC(C)C)CN1CC2 [VBZ, (S)-2-amino-3-methyl-butyric acid (2R, 3R, 11bR)-3-isobutyl-9,10-dimethoxy-1,3,4,6,7,11b-hexahydro-2H-pyrido[2,1-a]isoquinolin-2-yl]	can release the active (+)-α-DHTBZ	Ki (VMAT2 [1]): 187 nM
significantly lower aqueous solubility	< 1 µg/mL	< 1 µg/mL	1.7 µg/mL (≈ 0.00265 mM)	< 1 µg/mL	8810 µg/mL (≈ 13.7 mM)	150 µg/mL (≈ 0.234 mM)	fair to good solubility	31400 µg/mL (≈ 48.9 mM)	70200 µg/mL (≈ 109 mM)	96400 µg/mL (≈ 150 mM)	no or minimal color change	> 10000 nM	> 10000 nM		CCCCCCCCCCCCCCCCCCCCCC(=O)O[C@@H]1C[C@@H]2c3cc(OC)c(OC)cc3CCN2C[C@H]1CC(C)C [Compd 1-2, (2R,3R, 11bR)-3-isobutyl-9,10-dimethoxy-1,3,4,6,7,11b-hexahydro-2H-pyrido[2,1 a]isoquinolin-2-yl behenate]		
significantly lower aqueous solubility	< 1 µg/mL	1 µg/mL (≈ 0.00179 mM)	32.6 µg/mL (≈ 0.0584 mM)	< 1 µg/mL	513000 µg/mL (≈ 919 mM)	7800 µg/mL (≈ 14 mM)	fair to good solubility	370000 µg/mL (≈ 663 mM)	266000 µg/mL (≈ 478 mM)	277000 µg/mL (≈ 496 mM)	no or minimal color change	> 10000 nM	> 10000 nM	29900 µg/mL (≈ 53.6 mM)	CCCCCCCCCCCCCCCC(=O)O[C@@H]1C[C@@H]2c3cc(OC)c(OC)cc3CCN2C[C@H]1CC(C)C [Compd 1-1, (2R,3R, 11bR)-3-isobutyl-9,10-dimethoxy-1,3,4,6,7,11b-hexahydro-2H-pyrido[2,1-a]isoquinolin-2-yl palmitate]		solubility in organic solvents (in words) ([4]; all tested solvent (DMSO, DMAc, triacetin)): good solubility; hydrolysis to release (+)-α-DHTBZ (in words) ([8]; PLE/compound ratio of 5 or above): can be hydrolyzed; (+)-α-DHTBZ released by ester hydrolysis ([8]; PLE:compound 1-1 1:1, incubation 80 min, 37° C.): BQL
	1380 µg/mL (≈ 4.32 mM)	244 µg/mL (≈ 0.763 mM)	140 µg/mL (≈ 0.439 mM)	> 2000 µg/mL	555000 µg/mL (≈ 1740 mM)	410000 µg/mL (≈ 1280 mM)	fair to good solubility	30000 µg/mL (≈ 93.9 mM)	10100 µg/mL (≈ 31.6 mM)	8000 µg/mL (≈ 25 mM)	significant color change			26100 µg/mL (≈ 81.7 mM)	COc1cc2c(cc1OC)[C@H]1C[C@@H](O)[C@H](CC(C)C)CN1CC2 [Compd IV, (2R, 3R, 11bR)-3-isobutyl-9,10-dimethoxy-1,3,4,6,7,11b-hexahydro-2H-pyrido[2,1-a]isoquinolin-2-ol, reference compound]		
															COc1cc2c(cc1OC)C1CC(OC(C)=O)C(CC(C)C)CN1CC2 (stereo not shown) [acetate ester of Kilbourn]	no conversion	Ki (VMAT2 [9]): 16 nM
															COc1cc2c(cc1OC)C1CC(=O)C(CC(C)C)CN1CC2 (racemic) [TBZ, 3-isobutyl-9,10,dimethoxy-1,3,4,6,7,11b-hexahydro-2H-pyrido[2,1-a]isoquinolin-2-one]		IC50 (VMAT2 [10]): 3.2 nM
